{"source": "patent US5589461A", "about": "“Active substance for inhibiting the proliferation rate of hepatocytes” (priority 1994, dated 1996)", "key": {"[1]": {"system": "hepatocytes", "experiment": "proliferation rate of hepatocytes in rats after 66% partial hepatectomy (3H-thymidine, specific radioactivity of DNA)", "assay_type": "in vivo, rat", "excerpt": "To carry out these experiments, young female Wistar rats weighing 100 g were used, which had been provided from the SPF animal house department of the Max-Planck-Instut fur Biochemie in D-82152 Martinstied.\nSeven groups of rats were subjected to 66% partial hepatectomy. In each experimental group 4 animals were used. In a slight modification of the Higgins and Anderson method (Higgins, G. M., Anderson, R. M., Archives of Pathology 12 (1931), p. 186-202), the rats were submitted to partial hepatectomy between 13.00 h and 13.30 h. The tetrapeptide SDKP synthesized in the conventional way and dissolved in 1 ml of 0.9% NaCl was injected intraperitoneally (i.p.) to three groups immediately after operation and to three other groups 10 hrs after the operation, each three with different quantities (500 μg, 1 μg). The seventh group served as a control group, receiving the solvent only. […] The livers were conserved at -20° C. up to the time of determining the specific radioactivity of the DNA in the hepatocyte nuclei.\nThis specific radioactivity was used as a marker for the proliferation behaviour of the hepatocytes: Thymidine is incorporated only in DNA (not e.g. in RNA), and significant DNA synthesis is effected only during cell proliferation. The specific radioactivity of the DNA (in dpm/μg DNA) is the quotient of the result of radioactivity measurement of a sample (in dpm, i.e. disintegrations per minute) by the DNA content of that sample (in μg). The proliferation promoting or proliferation inhibiting character of the peptide (depending on the administered dose and the time of administration after partial hepatectomy) was determined by establishing the percentage of the specific radioactivity of the DNA in the hepatocyte nuclei of the experimental group as compared with the specific radioactivity of the control group associated with each experiment.\nFor determination of the specific radioactivity, the DNA was first extracted from the liver. […]\nFor measurement of the radioactivity, scintillation counting liquid was added to 1 ml of the extract, and ^3 H measurement was effected. […]"}, "[2]": {"system": "YOSHIDA liver tumor cell ascites AH 130", "experiment": "development of the YOSHIDA ascites AH 130 in rat", "assay_type": "in vivo", "experimental": "Two groups, each comprising five female Wistar rats weighing approx. 100 grams, were inoculated with the YOSHIDA liver tumor cell ascites AH 130 of a rat having been infected 8 days ago. 0.5 ml of ascites fluid were injected intraperitoneally (i.p.) to each animal. Starting on the seventh day after ascites inoculation, 1 μg of SDK (dissolved in 1 ml of 0.9% NaCl solution) was injected i.p. to each animal of one group (five rats) during four days. Then the animals of both groups were killed. The following parameters were determined:\n(a) Weight or respectively volume of ascites fluid. The killed rats were weighed, the ascites was sucked off as completely as possible, and the animals were weighed again. The difference resulting from these two ponderations corresponded to the ascites volume (1 g ≈1 ml).\n(b) Number of tumor cells in the ascites 2 ml of the sucked-off ascites for each animal were placed into an EDTA tube, to prevent cells from agglomerating. With an aliquot thereof, the number of tumor cells was measured in a Coulter counter and extrapolated for the total volume.\nThe third and fourth columns give the respective results of twin measurements."}, "[3]": {"system": "Hep G2 cells", "experiment": "human tumor cells in tissue culture (cell growth, 3H-thymidine incorporation)", "assay_type": "cell-based", "experimental": "The effect of the tripeptide on human tumor cells was tested in an in-vitro model. For this purpose, Hep G2 cells were used. This cell line is a human hepatom from the tumor cell bank of \"Deutsches Krebsforschungszentrum Heidelberg \", which is cultivated as a monolayer in 90% DMEM (Dulbecco's modified Eagle's medium)/10% FKS (fetal calf serum) in a subculture interval of three to five days. Sixty dishes of each of the experimental and control cultures were used. A solution of 20 mg of SDK in 0.2 ml of 0.9% NaCl served as a stock solution which was diluted with a physiological sodium chloride solution as required for each case.\nOne day after transferring the cells, 0.2 ml of tripeptide SDK dissolved in 0.9% NaCl (concentration: 1 μg/ml) were added to each 10 ml of culture medium. The control dishes received 0.2 ml of solvent.\nThis test was repeated, this time adding 0.5 ng, 1.0 ng, 2.0 ng and 4.0 ng of SDK in 0.9% NaCl per 1 ml of culture medium. The control dishes again received the corresponding quantity of solvent. Moreover, 0.05 mCi 6-^3 H-thymidine were added to the cultures […] prior to expiration of the observation period, followed by incubation for 1 hour. The DNA of the cells was isolated as described under item (1.), and the radioactivity was measured- The results are listed in the following chart."}, "[4]": {"system": "hepatitis B viruses", "experiment": "synthesis of hepatitis B viruses in transfected Hep G2 cells (HBSAG/HBEAG radioimmunoassay)", "assay_type": "cell-based", "settings": "for Ratio of mean values in cpm before/after treatment, HBEAG / Ratio of mean values in cpm before/after treatment, HBSAG: six days", "excerpt": "Hepatitis B viruses can be cultivated in Hep G2 cells. For this purpose, a recombining plasmide containing the complete virus DNA is channelled into the cells. Starting from this, the synthesizing mechanism of the cells transfected in this way will produce hepatitis B viruses (cf. Chungming Chang et al., EMBO J. 6, p. 675-680, 1987) The virus synthesis manifests itself by secreting large quantities of two surface antigens of that virus (HBSAG and HBEAG). The antigens can be detected by means of a radioimmunoassay (RIA). In this determination, an unknown quantity of antigen (HBSAG and HBEAG) competes with a known quantity of radioactively marked antigen for a limited number of antibody binding positions in a predetermined quantity of the antiserum. In the state of equilibrium, the surplus antigen exists in both the bound and the free dissolved conditions. Now, if the quantity of radioactively marked antigen is constant in a series of reactions, the proportion bound to the antibody will decrease in accordance with an increasing quantity of unmarked antigen added to the individual samples.\nFor practical execution of this process, a calibration curve is established first, using known quantities of marked and unmarked antigen, which will then permit determination of the unknown quantity of antigen. After incubation, the free antigen is separated from the bound antigen, and the two fractions are measured separately.\nA Hep-G2 cell culture was steadily transfected with hepatitis B viruses as described by SELLS et al., Proc. Natl. Acad. Sci. USA 1987, 84, p. 1005-1009. The transfected cells were sowed in ten 4.5 cm dishes at a density of 8×10^5 cells, and in four 9 cm dishes at a density of 1.6×10^6 cells respectively. After 24 hours, fresh medium was added, containing the tripeptide SDK at concencentrations of 0.5 ng/ml, 1.0 ng/ml, 3.0 ng/ml and 5 ng/ml for each two 4.9 cm dishes, or 1.0 ng/ml for each two 9 cm dishes respectively. The tripeptide had been prediluted in completed DMEM ([…]) and sterilized by filtration. The remaining dishes served as a control, receiving the pure medium. The old medium was conserved in the supernatant for measurement of antigens, in order to exclude artifacts due to possible heterogeneities of cell density. The samples of medium for measurement of antigens were taken after six days. Measurement was effected using a standard RIA kit (HBSAG Ansria II/125, type 7802, and HBEAG Abbott Hbe (rDNA), type 1237/24, both from Abbott, Wiesbaden), according to instructions for use. The experiments were conducted with twin samples (two dishes each), since the cells from one dish were not enough."}, "[5]": {"system": "human T-cells", "settings": "cited from earlier work"}, "[6]": {"system": "IgM secreting B-lymphocytes", "settings": "mice; cited from earlier work"}, "[7]": {"settings": "0.5 ng of SDK per ml of medium, 4.5 cm dishes"}, "[8]": {"settings": "1.0 ng of SDK per ml of medium, 4.5 cm dishes"}, "[9]": {"settings": "1.0 ng of SDK per ml of medium, 9.0 cm dishes"}, "[10]": {"settings": "3.0 ng of SDK per ml of medium, 4.5 cm dishes"}, "[11]": {"settings": "5.0 ng of SDK per ml of medium, 4.5 cm dishes"}}, "note": "Several values for one entry are separate records, joined by “and”; a condition that tells them apart may be missing. Equal values may be shown once. Where a SMILES comes first, the peptide text is derived from it."}
{"smiles": "NCCCC[C@H](NC(=O)[C@H](CC(=O)O)NC(=O)[C@@H](N)CO)C(=O)O", "note": "[SDK, Ser-Asp-Lys] (H-Ser-Asp-Lys-OH)", "values": [{"measurement": "effect on hepatocyte proliferation", "setting": "[1]; 1 μg injected after a certain time interval (1 h, 3, 6, 10 hrs after operation)", "result": "inhibiting effect"}, {"measurement": "effect on hepatocyte proliferation", "setting": "[1]; 1 μg injected immediately after operation", "result": "slightly proliferation promoting effect"}, {"measurement": "decrease in proliferation", "setting": "[1]; 1 μg injected ten hours after operation", "result": "about fifty"}, {"measurement": "average number of tumor cells as % of the number found in control animals", "setting": "[2]; 1 μg SDK/animal i.p. during four days", "result": 19.1, "unit": "%"}, {"measurement": "Ascites", "setting": "[2]; 1 μg SDK/animal i.p. during four days from seventh day after ascites inoculation", "result": "5.1 mL and 5.2 mL and 4.3 mL and 5.7 mL"}, {"measurement": "quantity of ascites", "setting": "[2]; 1 μg SDK/animal vs control", "result": "drastic decrease"}, {"measurement": "total number of tumor cells", "setting": "[2]; 1 μg SDK/animal vs control", "result": "drastic decrease"}, {"measurement": "Cell number total, mean value + standard deviation", "setting": "[2]; 1 μg SDK/animal, five rats", "result": "147.7 ± 70.1 × 10^6"}, {"measurement": "Inhibition of proliferation in %", "setting": "[3]; 0.5 ng of SDK per ml of medium", "result": 19.3, "unit": "%"}, {"measurement": "Inhibition of proliferation in %", "setting": "[3]; 1.0 ng of SDK per ml of medium", "result": 44.9, "unit": "%"}, {"measurement": "Inhibition of proliferation in %", "setting": "[3]; 2.0 ng of SDK per ml of medium", "result": 34.0, "unit": "%"}, {"measurement": "Inhibition of proliferation in %", "setting": "[3]; 4.0 ng of SDK per ml of medium", "result": 12.4, "unit": "%"}, {"measurement": "concentration of maximum proliferation inhibiting effect", "setting": "[3]; Hep G2, per ml of culture medium", "result": 1, "unit": "ng/mL"}, {"measurement": "Ratio of mean values in cpm before/after treatment, HBEAG", "setting": "[4]; [7]", "result": 6.10}, {"measurement": "Ratio of mean values in cpm before/after treatment, HBSAG", "setting": "[4]; [7]", "result": 4.47}, {"measurement": "Ratio of mean values in cpm before/after treatment, HBEAG", "setting": "[4]; [8]", "result": 6.22}, {"measurement": "Ratio of mean values in cpm before/after treatment, HBSAG", "setting": "[4]; [8]", "result": 4.18}, {"measurement": "Ratio of mean values in cpm before/after treatment, HBEAG", "setting": "[4]; [9]", "result": 6.59}, {"measurement": "Ratio of mean values in cpm before/after treatment, HBSAG", "setting": "[4]; [9]", "result": 3.89}, {"measurement": "Ratio of mean values in cpm before/after treatment, HBEAG", "setting": "[4]; [10]", "result": 7.31}, {"measurement": "Ratio of mean values in cpm before/after treatment, HBSAG", "setting": "[4]; [10]", "result": 4.57}, {"measurement": "Ratio of mean values in cpm before/after treatment, HBEAG", "setting": "[4]; [11]", "result": 8.00}, {"measurement": "Ratio of mean values in cpm before/after treatment, HBSAG", "setting": "[4]; [11]", "result": 4.18}, {"measurement": "concentration of antigens, and hence the virus synthesis", "setting": "[4]; transfected Hep G2 cells, SDK vs untreated", "result": "significantly reduced"}, {"measurement": "rosette formation due to interaction of human T-cells and sheep erythrocytes", "setting": "[5]", "result": "inhibits rosette formation"}, {"measurement": "immunomodulating effect: humoral response (generation of IgM secreting B-lymphocytes) to red blood cells of sheep", "setting": "[6]", "result": "stimulation of the humoral response"}]}
